Reference: US4346173A, “Process for the production of acyl-Coenzyme A oxidase” (Toyo Jozo Kabushiki Kaisha, priority 1979, dated 1982)

B1: acyl-CoA oxidase of Saccharomyces cerevisiae (strain Y 0036) (Saccharomyces cerevisiae S288C) (protein)
chain: MTRRTTINPDSVVLNPQKFIQKERADSKIKVDQVNTFLESSPERRTLTHALIDQIVNDPILKTDTDYYDAKKMQEREITAKKIARLASYMEHDIKTVRKHFRDTDLMKELQANDPDKASPLTNKDLFIFDKRLSLVANIDPQLGTRVGVHLGLFGNCIKGNGTDEQIRYWLQERGATLMKGIYGCFAMTELGHGSNVAQLQTRAVYDKQNDTFVIDTPDLTATKWWIGGAAHSATHAAVYARLIVEGKDYGVKTFVVPLRDPSTFQLLAGVSIGDIGAKMGRDGIDNGWIQFRNVVIPREFMLSRFTKVVRSPDGSVTVKTEPQLDQISGYSALLSGRVNMVMDSFRFGSKFATIAVRYAVGRQQFAPRKGLSETQLIDYPLHQYRVLPQLCVPYLVSPVAFKLMDNYYSTLDELYNASSSAYKAALVTVSKKLKNLFIDSASLKATNTWLIATLIDELRQTCGGHGYSQYNGFGKGYDDWVVQCTWEGDNNVLSLTSAKSILKKFIDSATKGRFDNTLDVDSFSYLKPQYIGSVVSGEIKSGLKELGDYTEIWSITLIKLLAHIGTLVEKSRSIDSVSKLLVLVSKFHALRCMLKTYYDKLNSRDSHISDEITKESMWNVYKLFSLYFIDKHSGEFQQFKIFTPDQISKVVQPQLLALLPIVRKDCIGLTDSFELPDAMLNSPIGYFDGDIYHNYFNEVCRNNPVEADGAGKPSYHALLSSMLGRGFEFDQKLGGAANAEILSKINK
notes: endogenous in cells; host or cells: Saccharomyces cerevisiae Y 0036 (FERM-P No. 5174; enzyme of the producing strain itself)

Tests used:
Assay in all cases: Acyl-CoA oxidase assay (hydrogen peroxide colorimetry at 545 nm), Km value
[1] = system: acyl-CoA oxidase of Arthrobacter sp. B-0720; assay type: biochemical; conditions: substrate of the assay method: palmitoyl-CoA; 37° C.; phosphate buffer pH 7.0 or tris-HCl buffer pH 8.0
Method: (§1) Enzyme solution (10 μl) is added to a reaction mixture (0.5 ml) consisting of 0.2 M phosphate buffer (pH 7.0) or 0.2 M tris-HCl buffer (pH 8.0) (0.1 ml), 5 mM 4-aminoantipyrine (0.05 ml), 3 mM diethyl m-toludine (0.05 ml), peroxidase (0.5 mg/ml, 0.05 ml), 25 mM palmitoyl-CoA (0.02 ml) and distilled water (0.23 ml) and the mixture is incubated at 37° C. for 10 minutes. 4 M urea (0.5 ml) is added to stop the reaction, and 1% by weight of Triton X-100 (2 ml) is added thereto and the generated hydrogen peroxide is measured at 545 nm by colorimetry.
(§2) A unit (1 unit, 1 U) of enzyme activity is defined as the activity of enzyme which generates 1μ mole of hydrogen peroxide per minute.

[2] = system: acyl-CoA oxidase of Monascus sp. M-4800; assay type: biochemical; conditions: substrate of the assay method: palmitoyl-CoA; 37° C.; phosphate buffer pH 7.0 or tris-HCl buffer pH 8.0
Method: as §1, §2

[3] = system: acyl-CoA oxidase of Aspergillus candidus M-4815; assay type: biochemical; conditions: substrate of the assay method: palmitoyl-CoA; 37° C.; phosphate buffer pH 7.0 or tris-HCl buffer pH 8.0
Method: as §1, §2

[4] = system: acyl-CoA oxidase of Cladosporium resinae IFO 6367; assay type: biochemical; conditions: substrate of the assay method: palmitoyl-CoA; 37° C.; phosphate buffer pH 7.0 or tris-HCl buffer pH 8.0
Method: as §1, §2

[5] = system: acyl-CoA oxidase of Macrophomina phaseoli ATCC 14383; assay type: biochemical; conditions: substrate of the assay method: palmitoyl-CoA; 37° C.; phosphate buffer pH 7.0 or tris-HCl buffer pH 8.0
Method: as §1, §2

[6] = substrate: CCCCCCCCCCCCCCCC(=O)SCCNC(=O)CCNC(=O)[C@H](O)C(C)(C)COP(=O)(O)OP(=O)(O)OC[C@H]1O[C@@H](n2cnc3c(N)ncnc32)[C@H](O)[C@@H]1OP(=O)(O)O; assay type: biochemical, Saccharomyces cerevisiae; conditions: other: substrate of the assay method: palmitoyl-CoA, 37° C., phosphate buffer pH 7.0 or tris-HCl buffer pH 8.0
Method: as §1, §2

Molecule	Km [1]	Km [2]	Km [3]	Km [4]	Km [5]	Km [6]
CCCCCCCCCCCCCCCC(=O)SCCNC(=O)CCNC(=O)[C@H](O)C(C)(C)COP(=O)(O)OP(=O)(O)OC[C@H]1O[C@@H](n2cnc3c(N)ncnc32)[C@H](O)[C@@H]1OP(=O)(O)O [palmitoyl-CoA]	130 µM	150 µM	110 µM	120 µM	87 µM	–
B1	–	–	–	–	–	500 µM
